Values of other authors as cited in patent US10722577B2, “Methods for treating GI syndrome and graft versus host disease” (Sloan Kettering Institute for Cancer Research, priority 2012, dated 2020).

System: in vitro models of GvHD
Details: previous work, U.S. Ser. No. 12/599,280; cited from earlier work

Compound: C[C@@H]1[C@H](O)[C@@H](C)/C=C/C=C/CC/C=C/C=C/C=C/C=C/C(O[C@H]2O[C@H](C)[C@@H](O)[C@H](N)[C@@H]2O)CC2O[C@](O)(CC(O)C(O)CCC(O)CC(O)CC(O)CC(=O)O[C@H]1C)CC(O)C2C(=O)O (stereo partly shown) [nystatin]
- apoptosis in in vitro models of GvHD: beneficial effects in reducing apoptosis
